Data as given in US11008551B2, “Method to increase the infectivity of virus particles” (The Trustees of Princeton University, priority 2011, dated 2021).

What was measured:
HCMV [1] = assay: Mevastatin treatment of infected MRC5 cells, released virus quantified by TCID50; assay type: cell-based, human cytomegalovirus (HCMV)
Experimental: In a first experiment, MRC5 cells were left untreated, treated with Mevastatin or mock treated. At 90 minutes post Mevastatin treatment, cells were treated with antibody to LRP1 or tubulin or left untreated. 1 hour post Mevastatin treatment, cells were infected at a multiplicity of 0.1 PFU/cell. At 96 hpi, released virus was used to infect new cells.
(§1) In a second experiment, cells were serum starved for 48 hours then treated with indicated antibodies. 1 hour post antibody treatment, serum-starved, confluent MRC5 cells were treated with various concentrations of cholesterol (+fatty acid-free BSA carrier) for 1 hour then infected at a multiplicity of 0.1 PFU/cell. At 96 hpi, released virus was used to infect new cells. “N” indicates no added cholesterol. Cell-free virus was quantified by a TCID50 assay. Data represents the mean and standard deviation from three independent experiments with three replicates each.

[2] = test system: HCMV strain AD169 virions; assay: Infectivity of gradient purified virions treated with MCβD and/or cholesterol; assay type: cell-based, human cytomegalovirus (HCMV)
Experimental: Due to the ability to sequester cholesterol in its hydrophobic pocket, methyl-ß-cyclodextrin (MCβD) removes cholesterol from membranes (Christian, Haynes et al. 1997). Thus, in order to directly test the role of virion envelope cholesterol in HCMV infection, purified virions were treated with various concentrations of MCβD to deplete cholesterol.
(§2) Gradient purified HCMV strain AD169 virions were either mock treated or treated with increasing concentrations of MCβD for 30 min at 37° C. MCβD (50 mM) treated virus was incubated in varying concentrations of cholesterol for 30 min at 37° C. Virus (no MCβD treatment) was incubated in varying concentrations of cholesterol for 30 min at 37° C. In all experiments, infectivity (FIG. 5, left panels) and cholesterol content (FIG. 5, right panels) were determined for the treated samples. Infectivity of untreated virus was set to 100%. Virus cholesterol content was determined using the amplexred (Invitrogen) specrofluorometric assay.
(§3) To determine whether the effect of MCβD could be rescued (and is thus reversible), and moreover, to determine if the loss of infectivity was due to cholesterol depletion, exogenous cholesterol was used to replenish the envelopes of MCβD-treated virions by incubating the virus particles with various amounts of free cholesterol.
(§4) To determine if virus infectivity could be increased by increasing virion cholesterol content alone, gradient purified HCMV virions were incubated with increasing concentrations of cholesterol then gradient purified for a second time.

HCMV strain AD169 = assay: Acid bypass assay of MCβD-treated virus, IE1 expression at 24 hpi; assay type: cell-based, human cytomegalovirus (HCMV); details: MCβD 50 mM, 3 pfu/cell, pH 4.7 vs 7.4, 24 hpi
Experimental: It is known that infection of host cells by enveloped viruses relies on the fusion of the viral envelope with either an endosomal membrane or the plasma membrane of the cell. Therefore, experiments were designed to test whether infectivity of MCβD-treated virus can be restored by using an “acid bypass assay” (Mercer and Helenius 2008) to circumvent the normal membrane fusion process during virus entry.
Cells were infected with MCβD (50 mM)-treated or mock-treated HCMV strain AD169 at a multiplicity of 3 pfu/cell, allowed to sit at 4° C. for 30 min to allow virus binding, then treated with buffer at a neutral (7.4) or acidic (4.7) pH for 3 min, washed with PBS, and examined for IE1 expression 24 hours later.
HCMV particles, either treated with MCβD or left untreated, were bound to cells at 4° C., then incubated in a low pH buffer (pH 4.7) to artificially induce the fusion event, thus allowing fusion-deficient viruses to enter the cell and replicate. A neutral pH buffer was used as a control. Virus replication after acid bypass was visualized by IE1 expression at 24 hpi (FIG. 6).

[3] = test system: HCMV strain AD169 virions; assay: Virus cholesterol content after MCβD and/or cholesterol treatment, amplex red assay; design: species or system human cytomegalovirus (HCMV)
Experimental: as §2
To confirm that MCβD treatment depleted virus of envelope cholesterol, the cholesterol content of MCβD-depleted virus was determined (FIG. 5A, right).
as §3, §4

HCMV [4] = assay: Cholesterol supplementation of serum-starved antibody-treated MRC5 cells, cell-free virus by TCID50; assay type: cell-based, human cytomegalovirus (HCMV); details: serum-starved MRC5 cells also treated with LRP1-specific antibody, 0.1 PFU/cell, 96 hpi
Experimental: as §1

[5] = virions treated with increasing MCβD, 30 min at 37° C.
[6] = MCβD (50 mM) treated virus incubated with varying cholesterol, 30 min at 37° C.
[7] = virus without MCβD treatment incubated with increasing cholesterol

## CC[C@H](C)C(=O)O[C@H]1CCC=C2C=C[C@H](C)[C@H](CC[C@@H]3C[C@@H](O)CC(=O)O3)[C@H]21 [Mevastatin]
HCMV [1]; MRC5 cells also treated with LRP1 antibody
  reversal of the increased infectivity caused by inhibition of LRP1 activity: to a limited extent
HCMV [1]; MRC5 cells, 0.1 PFU/cell, 96 hpi, Mevastatin
  production of infectivity: inhibited the production of infectivity in a dose-dependent manner

## methyl-ß-cyclodextrin [MCβD]
[2]; [5]
  HCMV infectivity: dose-dependent inhibition
HCMV strain AD169
  ability of treated virus to enter the cell and express IE1 protein after acid bypass: dramatic difference
[3]; 50 mM MCβD
  depletion of virion cholesterol: 90%
[3]; [5]
  virus cholesterol content: dose-dependent decrease

## CC(C)CCC[C@@H](C)[C@H]1CC[C@H]2[C@@H]3CC=C4C[C@@H](O)CC[C@]4(C)[C@H]3CC[C@]12C [cholesterol]
[2]; [6]
  HCMV infectivity of MCβD-treated virions: partially restored
[2]; [7]
  virus infectivity: increased
[3]; [6]
  envelope cholesterol content of MCβD-treated virions: partially restored
[3]; [7]
  overall cholesterol content of virus: increased
HCMV [4]
  production of HCMV infectivity: substantially enhanced
